Experimental data taken from patent US20240148747A1, “SMALL MOLECULE ACTIVATORS OF YAP TRANSCRIPTIONAL ACTIVITY FOR REGENERATIVE ORGAN REPAIR” (THE SCRIPPS RESEARCH INSTITUTE, priority 2021, published 2024).
Like-named read-outs stand apart in the source and are kept apart here.

Columns and labels:
[1] = test system: primary mouse epidermal keratinocytes; assay: Colony formation of primary mouse epidermal keratinocytes on dermal feeder layer; format: cell-based; settings: 10-day growth period on dermal feeder layer
From the text: We evaluated the proliferative response of primary cells and tissues to compound 13 treatment. […] In addition, compound 13 treatment allowed for the secondary re-plated expansion of Rhodamine B-stained keratinocytes and the time-dependent expression of YAP-driven transcript Cyr61 (FIGS. 2A-C).

[2] = test system: YAP and TEAD proteins; assay: YAP-TEAD association and YAP nuclear localization in cells; format: cell-based
[3] = test system: epidermis of wildtype adult C57BL/6 mice; assay: Topical application to dorsal skin of C57BL/6 mice (epidermal remodeling); format: in vivo, mouse
Protocol: When applied topically to the dorsal skin of wildtype adult C57BL/6 mice over the course of ten days, compound 13 (10 uM) promoted a dramatic expansion of keratinocytes and K14-positive precursors as assessed by […] and anti-K14 histological staining at study end (FIG. 2D).
(§1) Compound 13 treatment, in an exemplary embodiment, promotes wound healing in human cells and induces a pro-proliferative effect on keratinocytes in the human skin surrogate species, the Yucatan mini pig. Accordingly, there was developed a gel-based formulation of compound 13, which allows for its stable room temperature storage and its topical delivery in high concentrations (up to about 1.5 weight percent).

[4] = test system: Yucatan mini-pig skin; assay: Topical delivery in the Yucatan mini pig; format: in vivo
From the text: as §1

[5] = test system: human skin equivalents; assay: Wound healing in human skin equivalents (3 mm full thickness wound); format: cell-based
From the text: as §1

[6] = test system: YAP-controlled transcripts (ANRKD1, CYR61, CTGF); assay: YAP-controlled transcript levels in 293A and other human cell lines; format: cell-based
[7] = test system: YAP; assay: TEAD-LUC activation assay (293A-TEAD-LUC reporter); format: cell-based; settings: Homo sapiens
From the text: More specifically, we used a 293A cell line harboring a stably integrated cassette containing 8 copies of the TEAD binding element upstream of luciferase (8xGTII-LUC). These cells retain responsiveness to contact inhibition-induced decreases in YAP transcriptional output.^6 The TEAD-responsive reporter assay (called 293A-TEAD-LUC throughout) was adapted to 1536-well format and then used to screen a library of ˜738k compounds for YAP-inducing activity.
Additional compounds of the present disclosure were subjected to the assay described above.

[8] = Cytotoxicity in the TEAD-LUC activation assay; settings: human
[9] = in vitro; settings: human

SMILES	colony forming potential [1] [fold]	association of YAP and TEAD proteins in cells [2]	nuclear localization of YAP ([2]; in response to increased cell density)	YAP-dependent transcripts Ctgf, Cyr61, and Ankrd1 ([3]; endpoint of the experiment)	epidermal thickening, gel-based formulation versus drug in acetone or DMSO ([3]; topical delivery, mouse)	epidermal thickness ([3]; topical, ten days, 10 uM, wildtype mice)	KI-67 positive keratinocytes ([3]; topical, ten days, study end)	epidermal hyperplasia, dermal hyperplasia, YAP-dependent gene expression [4]	keratinocyte hyperplasia and wound contraction [5]	levels of YAP-controlled transcripts (ANRKD1, CYR61, CTGF) ([6]; 293A cells and MCF-10A, HEK293T, H69, HaCaT)	levels of YAP itself (YAP1) ([6]; 293A cells and other human cell lines)	EC50 ([7]; Table 3, read-out: TEAD-LUC activation assay EC50) [nM]	EC50 ([7]; absence of serum, high cell density, read-out: EC50 of luciferase activity induction in 293A-TEAD-LUC cells) [nM]	EC50 ([7]; presence of serum, high cell density, read-out: EC50 of luciferase activity induction in 293A-TEAD-LUC cells) [nM]	IC50 [8] [nM]	IC50 [9] [nM]	EC50 ([7]; Table 4, read-out: TEAD-LUC activation assay EC50) [nM]
O=C(NCCCc1nccs1)c1cc(-c2ccccc2)on1 [Compound 13, 5-phenyl-N-(3-(thiazol-2-yl)propyl)isoxazole-3-carboxamide]	~10	dose-dependently promoted	induced the nuclear localization of YAP	robust upregulation	to a more significant degree	approximate doubling	substantially increased	promoted epidermal hyperplasia, dermal hyperplasia, and YAP-dependent gene expression	promoted the hyperplasia of keratinocytes and promoted wound contraction	robustly increased	did not augment	1000	1600	1500	13700		
CN1[C@H]2CC[C@@H]1CN(C(=O)c1cc(-c3ccccc3)on1)CC2 [Compound 129]																> 20000	> 20000
